One experiment addresses T1, HiBit-BRM fusion protein (Homo sapiens, UniProt P51531).
T1 construct: expressed in transfected cells
The experiment can be described thus: HiBiT-BRM cell-based degradation assay (Nano-Glo HiBiT Lytic Detection, 24 h). Particulars: stable HeLa cell line expressing HiBiT-BRM, top dose 30 μM. An outline of the steps:
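Percent degradation was scaled between DMSO-treated cells and cells given 2 μM of a known BRM/BRG1 degrader. Readout was NanoBiT luminescence after lytic detection. HeLa cells stably expressing HiBiT-BRM were dosed for 24 h, 10 points, 3-fold steps from 30 μM final, in duplicate.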

The target of experiment [1] is T2, HiBit-BRG1 fusion protein (Homo sapiens, UniProt P51532).
T2 construct: expressed in transfected cells
The experiment can be described thus: HiBiT-BRG1 cell-based degradation assay (Nano-Glo HiBiT Lytic Detection, 24 h). Particulars: stable HeLa cell line expressing HiBit-BRG1 and LgBit, top dose 30 μM, read-out: BRG1 HiBit Degradation Maximum (%). The gist of the method:
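HeLa cells stably expressing HiBiT-BRG1 plus LgBiT were treated with 10-point 3-fold compound dilutions (top 30 μM final) for 24 h. Lytic Nano-Glo HiBiT luminescence was read. % degradation was normalised between DMSO (high control) and 2 μM of a reference BRM/BRG1 degrader (low control).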
Background: HiBiT is a short tag that completes a luciferase, so light tracks the accessible tagged protein.

Where only a bound is given, the exact number is not on record here.

T2 sequence (P51532 whole entry, the tested form may be a part): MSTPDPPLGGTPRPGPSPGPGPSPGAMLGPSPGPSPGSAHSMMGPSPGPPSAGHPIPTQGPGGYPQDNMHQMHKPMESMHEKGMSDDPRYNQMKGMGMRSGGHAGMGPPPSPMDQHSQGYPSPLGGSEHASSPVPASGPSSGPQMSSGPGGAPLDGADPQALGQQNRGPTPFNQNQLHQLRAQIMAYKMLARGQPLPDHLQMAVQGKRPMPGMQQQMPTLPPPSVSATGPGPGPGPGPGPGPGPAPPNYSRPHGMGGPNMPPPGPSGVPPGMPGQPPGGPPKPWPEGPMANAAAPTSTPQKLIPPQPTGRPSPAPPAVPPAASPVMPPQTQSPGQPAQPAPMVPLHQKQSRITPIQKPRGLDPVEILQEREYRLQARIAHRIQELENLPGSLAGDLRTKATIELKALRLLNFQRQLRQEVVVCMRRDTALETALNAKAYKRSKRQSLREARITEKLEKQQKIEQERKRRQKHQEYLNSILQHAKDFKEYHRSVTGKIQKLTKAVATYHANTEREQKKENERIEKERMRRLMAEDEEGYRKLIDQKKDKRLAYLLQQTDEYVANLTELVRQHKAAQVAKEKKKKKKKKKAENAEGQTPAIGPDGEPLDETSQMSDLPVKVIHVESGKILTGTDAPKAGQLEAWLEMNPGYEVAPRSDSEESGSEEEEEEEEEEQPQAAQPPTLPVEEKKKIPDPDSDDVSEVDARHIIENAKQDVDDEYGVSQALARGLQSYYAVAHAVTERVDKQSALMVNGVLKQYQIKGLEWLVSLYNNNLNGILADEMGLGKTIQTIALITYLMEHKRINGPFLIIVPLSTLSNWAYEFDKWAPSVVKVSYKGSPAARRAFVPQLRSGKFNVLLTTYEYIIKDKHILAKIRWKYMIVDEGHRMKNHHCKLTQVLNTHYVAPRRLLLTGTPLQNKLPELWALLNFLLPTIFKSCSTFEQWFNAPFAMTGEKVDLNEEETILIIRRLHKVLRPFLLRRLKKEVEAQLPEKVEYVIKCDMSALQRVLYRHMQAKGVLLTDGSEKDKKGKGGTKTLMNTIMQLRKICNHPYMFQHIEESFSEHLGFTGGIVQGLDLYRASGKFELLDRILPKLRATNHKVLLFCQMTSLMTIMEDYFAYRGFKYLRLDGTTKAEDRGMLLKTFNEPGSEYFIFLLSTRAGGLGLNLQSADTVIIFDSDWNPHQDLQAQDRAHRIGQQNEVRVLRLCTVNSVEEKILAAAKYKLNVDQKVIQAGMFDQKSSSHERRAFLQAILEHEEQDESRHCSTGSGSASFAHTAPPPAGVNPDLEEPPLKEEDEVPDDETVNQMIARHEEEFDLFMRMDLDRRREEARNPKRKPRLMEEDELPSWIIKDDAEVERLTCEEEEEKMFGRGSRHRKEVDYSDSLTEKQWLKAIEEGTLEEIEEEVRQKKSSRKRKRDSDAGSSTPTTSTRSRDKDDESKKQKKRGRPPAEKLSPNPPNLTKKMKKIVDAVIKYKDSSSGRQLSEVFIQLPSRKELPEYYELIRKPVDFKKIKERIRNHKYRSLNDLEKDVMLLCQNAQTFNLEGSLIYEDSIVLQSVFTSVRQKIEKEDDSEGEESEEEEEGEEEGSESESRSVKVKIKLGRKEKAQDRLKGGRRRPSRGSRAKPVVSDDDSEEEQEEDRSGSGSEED
T1 sequence (P51531 whole entry, the tested form may be a part): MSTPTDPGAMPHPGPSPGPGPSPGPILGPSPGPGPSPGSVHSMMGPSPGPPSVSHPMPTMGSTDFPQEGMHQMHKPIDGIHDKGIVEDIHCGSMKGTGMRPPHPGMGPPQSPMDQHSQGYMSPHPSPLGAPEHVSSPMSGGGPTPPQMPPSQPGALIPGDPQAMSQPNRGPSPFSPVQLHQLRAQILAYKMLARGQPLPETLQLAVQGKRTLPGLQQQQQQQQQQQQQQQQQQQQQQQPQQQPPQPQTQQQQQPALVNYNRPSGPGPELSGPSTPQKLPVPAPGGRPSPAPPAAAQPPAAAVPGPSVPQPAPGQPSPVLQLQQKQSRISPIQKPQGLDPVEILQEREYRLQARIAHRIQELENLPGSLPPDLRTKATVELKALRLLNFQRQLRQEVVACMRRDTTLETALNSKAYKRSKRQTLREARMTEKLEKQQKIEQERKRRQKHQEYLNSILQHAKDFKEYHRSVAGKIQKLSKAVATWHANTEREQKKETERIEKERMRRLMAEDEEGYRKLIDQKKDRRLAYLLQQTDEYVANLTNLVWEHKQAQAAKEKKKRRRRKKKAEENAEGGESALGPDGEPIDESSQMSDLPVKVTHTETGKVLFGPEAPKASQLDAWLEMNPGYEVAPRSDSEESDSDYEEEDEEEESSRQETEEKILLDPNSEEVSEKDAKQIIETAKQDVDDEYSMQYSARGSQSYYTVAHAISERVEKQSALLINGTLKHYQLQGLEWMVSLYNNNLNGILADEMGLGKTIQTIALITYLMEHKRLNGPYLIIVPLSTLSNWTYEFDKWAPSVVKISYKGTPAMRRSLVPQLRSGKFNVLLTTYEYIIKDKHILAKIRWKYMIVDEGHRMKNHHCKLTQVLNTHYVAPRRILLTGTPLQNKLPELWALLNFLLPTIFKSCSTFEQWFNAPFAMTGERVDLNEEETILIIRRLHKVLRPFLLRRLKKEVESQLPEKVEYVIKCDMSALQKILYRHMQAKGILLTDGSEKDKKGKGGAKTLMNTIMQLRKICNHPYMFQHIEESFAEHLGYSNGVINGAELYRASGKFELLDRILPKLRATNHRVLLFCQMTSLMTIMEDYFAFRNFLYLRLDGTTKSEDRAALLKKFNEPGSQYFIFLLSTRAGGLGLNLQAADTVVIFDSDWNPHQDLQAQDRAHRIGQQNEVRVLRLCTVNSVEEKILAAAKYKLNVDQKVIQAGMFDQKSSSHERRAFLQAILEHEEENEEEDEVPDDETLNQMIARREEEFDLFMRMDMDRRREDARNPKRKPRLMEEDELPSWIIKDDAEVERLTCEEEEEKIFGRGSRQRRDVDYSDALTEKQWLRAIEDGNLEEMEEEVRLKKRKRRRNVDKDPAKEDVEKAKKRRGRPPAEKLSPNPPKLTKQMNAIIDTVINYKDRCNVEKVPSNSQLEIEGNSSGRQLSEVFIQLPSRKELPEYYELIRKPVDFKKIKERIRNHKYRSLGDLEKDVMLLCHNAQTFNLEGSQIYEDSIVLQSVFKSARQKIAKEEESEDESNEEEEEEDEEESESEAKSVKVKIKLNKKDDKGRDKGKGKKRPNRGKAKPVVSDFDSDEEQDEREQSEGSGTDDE

On to `Nc1nnc(-c2ccccc2O)cc1OCC12CC(C(=O)NCCCCNc3ccc4c(c3)C(=O)N(C3CCC(=O)NC3=O)C4=O)(C1)C2` (centres unmarked) [Compound 62, formic acid], for which, at HiBit-BRM fusion protein, the “BRM HiBit Degradation Maximum (%)” value is reported as “C (“C” indicates maximum degradation < 50%)”. The Dmax in experiment [1] is below 50%.
For the compound `Nc1nnc(-c2ccccc2O)cc1OCCC12CC(NC(=O)CCCCCCCCCCNc3ccc4c(c3)C(=O)N(C3CCC(=O)NC3=O)C4=O)(C1)C2` (centres unmarked) [Compound 26, N-[3-(2-[[3-amino-6-(2-hydroxyphenyl)pyridazin-4-yl]oxy]ethyl)bicyclo[1.1.1]pentan-1-yl]-11-[[2-(2,6-dioxopiperidin-3-yl)-1,3-dioxoisoindol-5-yl]amino]undecanamide], the “BRM HiBit Degradation Maximum (%)” value at HiBit-BRM fusion protein was “C (“C” indicates maximum degradation < 50%)”. The Dmax in experiment [1] was below 50%.
On the same counts, the results for `Nc1nnc(-c2ccccc2O)cc1OCC12CC(C(=O)NCCOCCOCCNc3ccc4c(c3)C(=O)N(C3CCC(=O)NC3=O)C4=O)(C1)C2` (centres unmarked) [Compound 66, 3-(((3-amino-6-(2-hydroxyphenyl)pyridazin-4-yl)oxy)methyl)-N-(2-(2-(2-((2-(2,6-dioxopiperidin-3-yl)-1,3-dioxoisoindolin-5-yl)amino)ethoxy)ethoxy)ethyl)bicyclo[1.1.1]pentane-1-carboxamide] are “C (“C” indicates maximum degradation < 50%)” and below 50%.
On the same counts, the results for `Nc1nnc(-c2ccccc2O)cc1OCC12CC(C(=O)N3CCN(CCCOc4ccc5c(c4)C(=O)N(C4CCC(=O)NC4=O)C5=O)CC3)(C1)C2` (centres unmarked) [Compound 97, 5-(3-(4-(3-(((3-amino-6-(2-hydroxyphenyl)pyridazin-4-yl)oxy)methyl)bicyclo[1.1.1]pentane-1-carbonyl)piperazin-1-yl)propoxy)-2-(2,6-dioxopiperidin-3-yl)isoindoline-1,3-dione; formic acid] are “C (“C” indicates maximum degradation < 50%)” and below 50%.
`CN(CCNC(=O)C12CC(COc3cc(-c4ccccc4O)nnc3N)(C1)C2)CCOCCOc1cccc2c1C(=O)N(C1CCC(=O)NC1=O)C2=O` (centres unmarked) [Compound 79, 3-(((3-amino-6-(2-hydroxyphenyl)pyridazin-4-yl)oxy)methyl)-N-(2-((2-(2-((2-(2,6-dioxopiperidin-3-yl)-1,3-dioxoisoindolin-4-yl)oxy)ethoxy)ethyl)(methyl)amino)ethyl)bicyclo[1.1.1]pentane-1-carboxamide]: at HiBit-BRM fusion protein, the “BRM HiBit Degradation Maximum (%)” value is “C (“C” indicates maximum degradation < 50%)”. The Dmax in experiment [1] is below 50%.
On the same counts, the results for `Nc1nnc(-c2ccccc2O)cc1OCCC12CC(NC(=O)CCCCCCOc3cccc4c3C(=O)N(C3CCC(=O)NC3=O)C4=O)(C1)C2` (centres unmarked) [Compound 20, N-[3-(2-[[3-amino-6-(2-hydroxyphenyl)pyridazin-4-yl]oxy]ethyl)bicyclo[1.1.1]pentan-1-yl]-7-[[2-(2,6-dioxopiperidin-3-yl)-1,3-dioxoisoindol-4-yl]oxy]heptanamide] are “C (“C” indicates maximum degradation < 50%)” and below 50%.
For the compound `Nc1nnc(-c2ccccc2O)cc1OCCC12CC(NC(=O)CCN3CC4(C3)CN(c3ccc5c(c3)C(=O)N(C3CCC(=O)NC3=O)C5=O)C4)(C1)C2` (centres unmarked) [Compound 34, N-(3-(2-((3-amino-6-(2-hydroxyphenyl)pyridazin-4-yl)oxy)ethyl)bicyclo[1.1.1]pentan-1-yl)-3-(6-(2-(2,6-dioxopiperidin-3-yl)-1,3-dioxoisoindolin-5-yl)-2,6-diazaspiro[3.3]heptan-2-yl)propanamide], the “BRM HiBit Degradation Maximum (%)” value on HiBit-BRM fusion protein was “C (“C” indicates maximum degradation < 50%)”. For the same compound, the Dmax in experiment [1] is below 50%.
On the same counts, the results for `Nc1nnc(-c2ccccc2O)cc1OCCC12CC(NC(=O)CCOCCOCCNc3cccc4c3C(=O)N(C3CCC(=O)NC3=O)C4=O)(C1)C2` (centres unmarked) [Compound 27, N-[3-(2-[[3-amino-6-(2-hydroxyphenyl)pyridazin-4-yl]oxy]ethyl)bicyclo[1.1.1]pentan-1-yl]-3-[2-(2-[[2-(2,6-dioxopiperidin-3-yl)-1,3-dioxoisoindol-4-yl]amino]ethoxy)ethoxy]propanamide] are “C (“C” indicates maximum degradation < 50%)” and below 50%.
On the same counts, the results for `Nc1nnc(-c2ccccc2O)cc1OCC12CC(CNC(=O)CCOCCOCCNc3ccc4c(c3)C(=O)N(C3CCC(=O)NC3=O)C4=O)(C1)C2` (centres unmarked) [Compound 6, N-[[3-([[3-amino-6-(2-hydroxyphenyl)pyridazin-4-yl]oxy]methyl)bicyclo[1.1.1]pentan-1-yl]methyl]-3-[2-(2-[[2-(2,6-dioxopiperidin-3-yl)-1,3-dioxoisoindol-5-yl]amino]ethoxy)ethoxy]propanamide] are “C (“C” indicates maximum degradation < 50%)” and below 50%.
On the same counts, the results for `Cc1nc2cccc(NCCCCCCCCNC(=O)C34CC(COc5cc(-c6ccccc6O)nnc5N)(C3)C4)c2c(=O)n1C1CCC(=O)NC1=O` (centres unmarked) [Compound 59, 3-(((3-amino-6-(2-hydroxyphenyl)pyridazin-4-yl)oxy)methyl)-N-(8-((3-(2,6-dioxopiperidin-3-yl)-2-methyl-4-oxo-3,4-dihydroquinazolin-5-yl)amino)octyl)bicyclo[1.1.1]pentane-1-carboxamide] are “C (“C” indicates maximum degradation < 50%)” and below 50%.
As to `Nc1nnc(-c2ccccc2O)cc1OCCC12CC(NC(=O)CCN3CCN(c4ccc5c(c4)C(=O)N(C4CCC(=O)NC4=O)C5=O)CC3)(C1)C2` (centres unmarked) [Compound 33, N-(3-(2-((3-amino-6-(2-hydroxyphenyl)pyridazin-4-yl)oxy)ethyl)bicyclo[1.1.1]pentan-1-yl)-3-(4-(2-(2,6-dioxopiperidin-3-yl)-1,3-dioxoisoindolin-5-yl)piperazin-1-yl)propanamide], the “BRM HiBit Degradation Maximum (%)” value on HiBit-BRM fusion protein was “C (“C” indicates maximum degradation < 50%)”. For the same compound, the Dmax in experiment [1] is below 50%.
On the same counts, the results for `Nc1nnc(-c2ccccc2O)cc1OCC12CC(CNC(=O)CCCCCCCCCCNc3cccc4c3C(=O)N(C3CCC(=O)NC3=O)C4=O)(C1)C2` (centres unmarked) [Compound 8, N-[[3-([[3-amino-6-(2-hydroxyphenyl)pyridazin-4-yl]oxy]methyl)bicyclo[1.1.1]pentan-1-yl]methyl]-11-[[2-(2,6-dioxopiperidin-3-yl)-1,3-dioxoisoindol-4-yl]amino]undecanamide] are “C (“C” indicates maximum degradation < 50%)” and below 50%.
In the same order, the values of `Cc1ncsc1-c1ccc(CNC(=O)[C@@H]2C[C@@H](O)CN2C(=O)[C@@H](NC(=O)CCCCCCCCCC(=O)NCC23CC(COc4cc(-c5ccccc5O)nnc4N)(C2)C3)C(C)(C)C)cc1` [Compound 39, N1-((3-(((3-amino-6-(2-hydroxyphenyl)pyridazin-4-yl)oxy)methyl)bicyclo[1.1.1]pentan-1-yl)methyl)-N11-((S)-1-((2S,4R)-4-hydroxy-2-((4-(4-methylthiazol-5-yl)benzyl)carbamoyl)pyrrolidin-1-yl)-3,3-dimethyl-1-oxobutan-2-yl)undecanediamide] are “B (“B” indicates maximum degradation ≥ 50%)” and below 50%.

Values taken from patent publication US12552775B2, “Compounds and uses thereof” (Foghorn Therapeutics Inc., priority 2020, dated 2026).
